Test results as given in PubChem BioAssay (NCI).
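Growth conditions: 96-well plates. Treatment: test compound, 48 hours, 5 concentrations. Analysis: linear interpolation between bracketing concentrations; unreached endpoints set to highest concentration. At the TGI there is no net growth.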

How the values were obtained:
Experiment in all cases: NCI anticancer screen, dose series, 48 h
SK-MEL-5 melanoma = system: SK-MEL-5 melanoma
MDA-MB-231 breast = system: MDA-MB-231 breast
SN12C renal = system: SN12C renal
SNB-19 CNS = system: SNB-19 CNS
A549 NSCLC = system: A549 NSCLC
SF-539 CNS = system: SF-539 CNS
M14 melanoma = system: M14 melanoma
HT29 colon = system: HT29 colon
T-47D breast = system: T-47D breast
BT-549 breast = system: BT-549 breast
UACC-257 melanoma = system: UACC-257 melanoma
SW-620 colon = system: SW-620 colon
786-0 renal = system: 786-0 renal
OVCAR-3 ovarian = system: OVCAR-3 ovarian
COLO 205 colon = system: COLO 205 colon
DU-145 prostate = system: DU-145 prostate
HL-60(TB) leukemia = system: HL-60(TB) leukemia
OVCAR-8 ovarian = system: OVCAR-8 ovarian
K-562 leukemia = system: K-562 leukemia
MDA-N = system: MDA-N
MOLT-4 leukemia = system: MOLT-4 leukemia
NCI-H522 lung = system: NCI-H522 lung
SK-MEL-28 melanoma = system: SK-MEL-28 melanoma
U251 CNS = system: U251 CNS
MDA-MB-435 = system: MDA-MB-435
LOX IMVI melanoma = system: LOX IMVI melanoma
HS 578T breast = system: HS 578T breast
IGROV1 ovarian = system: IGROV1 ovarian
SK-OV-3 ovarian = system: SK-OV-3 ovarian
NCI/ADR-RES ovarian = system: NCI/ADR-RES ovarian
NCI-H460 lung = system: NCI-H460 lung
UACC-62 melanoma = system: UACC-62 melanoma
OVCAR-4 ovarian = system: OVCAR-4 ovarian
NCI-H226 lung = system: NCI-H226 lung
HCC-2998 colon = system: HCC-2998 colon
RPMI-8226 leukemia = system: RPMI-8226 leukemia
HCT-15 colon = system: HCT-15 colon
KM12 colon = system: KM12 colon
MALME-3M melanoma = system: MALME-3M melanoma
RXF 393 renal = system: RXF 393 renal
HCT-116 colon = system: HCT-116 colon
SF-295 CNS = system: SF-295 CNS
SK-MEL-2 melanoma = system: SK-MEL-2 melanoma
PC-3 prostate = system: PC-3 prostate
CCRF-CEM leukemia = system: CCRF-CEM leukemia
TK-10 renal = system: TK-10 renal
HOP-92 NSCLC = system: HOP-92 NSCLC
SF-268 CNS = system: SF-268 CNS
SR leukemia = system: SR leukemia
EKVX NSCLC = system: EKVX NSCLC
CAKI-1 renal = system: CAKI-1 renal
OVCAR-5 ovarian = system: OVCAR-5 ovarian
ACHN renal = system: ACHN renal
MCF7 breast = system: MCF7 breast
HOP-62 NSCLC = system: HOP-62 NSCLC
UO-31 renal = system: UO-31 renal
NCI-H23 lung = system: NCI-H23 lung
SNB-75 CNS = system: SNB-75 CNS
A498 renal = system: A498 renal

Measured: TGI

CCOC(=O)CC1(Cc2ccc(OCc3ccccc3)cc2)C(=O)OC(c2ccccc2)N1C(=O)c1ccccc1 (centres undefined)
84.7 µM: HCC-2998 colon
62.1 µM: NCI-H460 lung
not listed: SNB-75 CNS | A498 renal
> 100 µM: all other assays above

CC(C)(C)OC(=O)N1C(OP(=O)(Oc2ccccc2)Oc2ccccc2)=CSc2ccccc21
43.1 µM: HL-60(TB) leukemia
88.1 µM: MALME-3M melanoma
77.6 µM: MDA-MB-231 breast
49.6 µM: COLO 205 colon
66 µM: MOLT-4 leukemia
80.9 µM: HOP-92 NSCLC
68.6 µM: M14 melanoma
92.3 µM: CAKI-1 renal
43.7 µM: SK-MEL-2 melanoma
52 µM: RPMI-8226 leukemia
not listed: CCRF-CEM leukemia | A498 renal
> 100 µM: all other assays above

CCCC1CC(=O)NC(=O)C1C(=O)OC(C)(C)C (centres undefined)
not listed: A549 NSCLC | SF-539 CNS | M14 melanoma | SK-OV-3 ovarian | CCRF-CEM leukemia | HOP-92 NSCLC
> 100 µM: all other assays above

COc1ccc2c(C)c(Oc3c(Cl)c(Cl)c(O)c(C#N)c3C#N)oc2c1
not listed: RXF 393 renal | HOP-92 NSCLC
> 100 µM: all other assays above

CC(C)CCCC(C)[C@H]1CC[C@H]2n3c(nc4ccccc43)CCC[C@]12C (some centres undefined)
35.7 µM: BT-549 breast
33 µM: MDA-MB-231 breast
36.5 µM: K-562 leukemia
63.8 µM: HS 578T breast
31.5 µM: OVCAR-4 ovarian
37.1 µM: SNB-19 CNS
43 µM: SF-268 CNS
42.9 µM: PC-3 prostate
28.6 µM: UO-31 renal
30.9 µM: SK-OV-3 ovarian
37.2 µM: OVCAR-8 ovarian | SR leukemia
46.1 µM: MALME-3M melanoma
29.3 µM: SNB-75 CNS
32 µM: NCI-H460 lung
35.5 µM: SK-MEL-2 melanoma
31.1 µM: SN12C renal
38.1 µM: UACC-257 melanoma
47.3 µM: SW-620 colon
32.3 µM: HL-60(TB) leukemia
35.2 µM: SF-539 CNS
52.5 µM: KM12 colon
26.4 µM: HT29 colon
35.4 µM: M14 melanoma
38.2 µM: TK-10 renal
58.5 µM: DU-145 prostate
28.5 µM: MCF7 breast
33.4 µM: HCT-15 colon
50.3 µM: A549 NSCLC
32.8 µM: SK-MEL-5 melanoma
39 µM: OVCAR-3 ovarian
33.8 µM: NCI/ADR-RES ovarian
38.6 µM: MDA-MB-435
53.4 µM: HCT-116 colon
35.9 µM: MOLT-4 leukemia
42.6 µM: U251 CNS
33.9 µM: RPMI-8226 leukemia
34.6 µM: IGROV1 ovarian
37.3 µM: 786-0 renal | HOP-92 NSCLC
40.6 µM: HOP-62 NSCLC
34.4 µM: NCI-H23 lung
34.3 µM: SK-MEL-28 melanoma | CAKI-1 renal
30.8 µM: UACC-62 melanoma
32.4 µM: MDA-N
33.5 µM: NCI-H226 lung | RXF 393 renal
23.7 µM: COLO 205 colon
49 µM: CCRF-CEM leukemia
30.7 µM: SF-295 CNS
28 µM: A498 renal
35.8 µM: T-47D breast
> 100 µM: LOX IMVI melanoma

COc1ccccc1C(=O)NO
not listed: SF-539 CNS | MALME-3M melanoma | HOP-92 NSCLC | A498 renal
> 100 µM: all other assays above

N#Cc1ccc(-c2nc3c(N)nc(-c4ccccc4)nc3o2)cc1
22.3 µM: SF-539 CNS
27.7 µM: U251 CNS
46.2 µM: MDA-MB-231 breast
not listed: SK-OV-3 ovarian | MALME-3M melanoma | CCRF-CEM leukemia
> 100 µM: all other assays above
